Data published in patent US5646261A, “3'-derivatized oligonucleotide analogs with non-nucleotidic groupings, their preparation and use” (Hoechst Aktiengesellschaft, priority 1992, dated 1997).
{Psoralen} = psoralen conjugate attached via phosphate

Tests used:
[1] = test system: E1b (SP1 binding region of adenovirus E1b); assay: Inhibition of transcription of E1b; conditions: as sense oligonucleotide, simulates the SP1 binding region
[2] = test system: HSV-1; assay: Inhibition of HSV-1 viral replication in cell culture; type: cell-based, herpes simplex virus type 1

Substance: d(GpGpGpCpGpGpGpGpCpTpTpApApApGpG(3'5'S)CpCpTpTpTpApApGpCpCpCpCpGpCpCpCp-O- -(CH2 CH2 O)8 (CH2)13 CH3) (DNA GGGCGGGGCTTAAAGNNCTTTAAGCCCCGCCN; chemistry not fully specified) [IB-2, 3'-modified oligonucleotide analog with a 3'5'-spacer]
- inhibition of transcription of E1b [1]: inhibits the transcription of E1b

Substance: "psoralen"-pGpGpTpGpTpTpTpGpGpGpGpGpTpTpGpG(5'5'S)GpTpTpGpGpGpGpT2pTpGpTpGpTpGp-"psoralen") (chain 1 NGTTGGGGGTTTGTGN; chain 2 NTTGGGGTTGTGTN; 3' {Psoralen}, sugars by position, backbone and the base at N not given here; two pieces joined 5'-5' through S linker) [IA-4, oligonucleotide modified with psoralen at both 3'-ends]
- inhibition of HSV-1 replication by triplex formation ([2]; target: origin of replication (oriL) of the HSV-1 genome): inhibits replication of the latter by triplex formation

Substance: d(p-Nitrophenylethyl-2-oxy-pC(5'5'p)GpTpCpCpApTpGpTpCpGpGpCpApApApCpApGpCpTp-O-i-C3 H7) (DNA NNTCCATGTCGGCAAACAGCN; chemistry not fully specified) [IA-2]
- inhibition of HSV-1 replication ([2]; cell culture, sequence I directed against mRNA of transactivator protein Vmw65, sequences II and III against splice-acceptor region of IE4/5 precursor mRNA): inhibit HSV-1 replication
